According to ChEMBL document CHEMBL5244202, “Structural evolution of toll-like receptor 7/8 agonists from imidazoquinolines to imidazoles” (RSC Med Chem, 2021):
Blank lines part the entries; values can stand above or below the molecule they belong to.

Assays:
[1] = target: T1, Toll-like receptor 7 (Homo sapiens) (UniProt Q9NYK1); assay: Agonist activity at human TLR7 transfected in HEK293 cells incubated for 6 hrs by luciferase based analysis; assay type: cell-based; details: filed as agonist
T1 sequence (whole entry): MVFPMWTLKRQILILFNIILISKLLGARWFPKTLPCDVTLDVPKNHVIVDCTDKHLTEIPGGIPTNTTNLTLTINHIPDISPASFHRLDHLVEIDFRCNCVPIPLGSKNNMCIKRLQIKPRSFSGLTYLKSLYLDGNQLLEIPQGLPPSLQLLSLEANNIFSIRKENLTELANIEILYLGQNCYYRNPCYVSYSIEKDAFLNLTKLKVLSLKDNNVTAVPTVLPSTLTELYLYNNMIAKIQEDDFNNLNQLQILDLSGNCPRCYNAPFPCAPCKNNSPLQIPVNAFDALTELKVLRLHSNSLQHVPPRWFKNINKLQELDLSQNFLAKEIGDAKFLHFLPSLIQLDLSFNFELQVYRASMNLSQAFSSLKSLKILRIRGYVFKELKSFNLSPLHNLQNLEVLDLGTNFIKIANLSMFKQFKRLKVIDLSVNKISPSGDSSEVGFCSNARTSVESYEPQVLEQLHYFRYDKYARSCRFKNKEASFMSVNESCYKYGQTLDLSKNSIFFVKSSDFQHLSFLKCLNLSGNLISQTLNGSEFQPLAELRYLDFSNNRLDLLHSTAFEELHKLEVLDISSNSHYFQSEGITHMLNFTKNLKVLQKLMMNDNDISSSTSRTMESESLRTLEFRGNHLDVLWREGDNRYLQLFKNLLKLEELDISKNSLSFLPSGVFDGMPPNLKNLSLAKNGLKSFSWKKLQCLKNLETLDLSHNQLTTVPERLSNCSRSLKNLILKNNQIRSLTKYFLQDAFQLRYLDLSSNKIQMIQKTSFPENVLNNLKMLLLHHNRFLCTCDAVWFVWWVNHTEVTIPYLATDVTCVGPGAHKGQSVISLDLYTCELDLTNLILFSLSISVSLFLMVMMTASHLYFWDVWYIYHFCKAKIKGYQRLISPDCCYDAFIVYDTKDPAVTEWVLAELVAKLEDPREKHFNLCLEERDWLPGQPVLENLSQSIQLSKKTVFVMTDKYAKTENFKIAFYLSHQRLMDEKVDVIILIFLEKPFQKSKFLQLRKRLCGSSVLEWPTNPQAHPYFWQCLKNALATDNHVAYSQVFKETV

[2] = target: T2, Toll-like receptor 8 (Homo sapiens) (UniProt Q9NR97); assay: Agonist activity at human TLR8 transfected in HEK293 cells incubated for 6 hrs by luciferase based analysis; assay type: cell-based; details: filed as agonist
T2 sequence (whole entry): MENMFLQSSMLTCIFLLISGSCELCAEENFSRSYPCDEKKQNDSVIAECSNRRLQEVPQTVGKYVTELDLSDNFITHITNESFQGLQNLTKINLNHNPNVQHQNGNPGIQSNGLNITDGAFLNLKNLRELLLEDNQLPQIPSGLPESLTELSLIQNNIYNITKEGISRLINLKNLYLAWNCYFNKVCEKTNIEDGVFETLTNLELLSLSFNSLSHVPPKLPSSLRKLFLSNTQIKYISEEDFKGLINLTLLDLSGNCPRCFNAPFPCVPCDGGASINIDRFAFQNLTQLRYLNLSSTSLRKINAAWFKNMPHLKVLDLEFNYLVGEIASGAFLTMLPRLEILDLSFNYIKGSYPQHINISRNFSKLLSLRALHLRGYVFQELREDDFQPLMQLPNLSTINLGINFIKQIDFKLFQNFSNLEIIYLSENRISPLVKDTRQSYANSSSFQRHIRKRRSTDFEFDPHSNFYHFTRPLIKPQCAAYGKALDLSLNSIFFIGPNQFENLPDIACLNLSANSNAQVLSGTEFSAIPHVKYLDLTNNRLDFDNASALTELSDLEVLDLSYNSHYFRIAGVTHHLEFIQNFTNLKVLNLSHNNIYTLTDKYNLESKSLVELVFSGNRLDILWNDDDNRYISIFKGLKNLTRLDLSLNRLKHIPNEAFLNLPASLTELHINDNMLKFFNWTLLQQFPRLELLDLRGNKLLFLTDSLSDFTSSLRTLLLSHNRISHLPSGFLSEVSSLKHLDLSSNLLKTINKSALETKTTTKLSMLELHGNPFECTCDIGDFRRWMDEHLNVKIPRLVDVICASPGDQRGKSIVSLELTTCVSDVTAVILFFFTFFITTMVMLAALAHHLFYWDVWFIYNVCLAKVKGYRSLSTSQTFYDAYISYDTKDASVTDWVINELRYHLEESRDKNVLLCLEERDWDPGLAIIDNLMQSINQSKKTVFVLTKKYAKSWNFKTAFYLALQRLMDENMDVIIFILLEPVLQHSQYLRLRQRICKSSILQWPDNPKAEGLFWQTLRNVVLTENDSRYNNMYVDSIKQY

[3] = target: T2, Toll-like receptor 8 (Homo sapiens); assay: (§1) Agonist activity at TLR8 (unknown origin)
[4] = target: T1, Toll-like receptor 7 (Homo sapiens); assay: (§2) Agonist activity at TLR7 (unknown origin); details: filed as agonist
[5] = target: T3, Toll-like receptor 8 (Homo sapiens, UniProt Q9NR97); assay: Agonist activity at human TLR8 (27 to 287 residues) in HEK-Blue hTLR8 cells assessed as induction of NFkappaB by SEAP reporter gene based spectrophotometry assay; assay type: cell-based
T3 sequence (Q9NR97 whole entry): T2 sequence (whole entry)

[6] = target: T3, Toll-like receptor 8; assay: as §1
[7] = target: T4, Toll-like receptor 7 (Homo sapiens, UniProt Q9NYK1); assay: as §2
T4 sequence (Q9NYK1 whole entry): T1 sequence (whole entry)

[8] = organism: Homo sapiens; assay: Selectivity index, ratio of EC50 for agonist activity at TLR8 (unknown origin) to EC50 for agonist activity at TLR7 (unknown origin)
[9] = target: T4, Toll-like receptor 7; assay: Agonist activity at recombinant human TLR7 transfected in HEK293 cells assessed as induction of SEAP production incubated overnight by SEAP reporter gene based assay; assay type: cell-based
[10] = target: T3, Toll-like receptor 8; assay: Agonist activity at human TLR8 in HEK-Blue hTLR8 cells assessed as induction of SEAP production using nitrophenyl phosphate as substrate incubated for 20 hrs by microplate reader analysis; assay type: cell-based
[11] = target: T4, Toll-like receptor 7; assay: Agonist activity at human TLR7 in HEK-Blue hTLR7 cells incubated for 24 hrs by quanti-blue reagent based analysis; assay type: cell-based
[12] = target: T3, Toll-like receptor 8; assay: Agonist activity at human TLR8 in HEK-Blue hTLR8 cells incubated for 24 hrs by quanti-blue reagent based analysis; assay type: cell-based
[13] = Induction of IFN production in C3H/HeJ mouse splenocytes incubated for 18 hrs; assay type: functional; details: Splenocyte, read-out: MEC

MEC [3]: > 25 µM | MEC [4]: 2 µM
Compound: COc1ccc2cc1O/C=C\CCOc1nc(N)c3nc(O)n(c3n1)C2

EC50 [5]: 100000 nM
Compound: CCOc1cc2ccccc2nc1N

EC50 [9]: < 6.31 nM | EC50 [10]: 100 nM
Compound: CCC[C@@H](CO)Nc1nc(N)nc(C)c1Cc1ccc(CN2CCN(C)CC2)cc1OC

MEC [3]: > 25 µM | MEC [4]: 0.18 µM
Compound: COc1cc2cc(c1)O/C=C\CCOc1nc(N)c3nc(O)n(c3n1)C2

EC50 [9]: < 5.89 nM | EC50 [10]: 63.1 nM
Compound: CCC[C@@H](CO)Nc1nc(N)nc(C)c1Cc1ccc(CN2CCCC2)cc1OC

EC50 [5]: 100000 nM
Compound: COc1cc2ccccc2nc1N

The next lines start with the molecule.

Compound: CCCC[C@@H](CO)Nc1nc(N)nc2ccsc12
MEC [1]: 0.5 µM | MEC [2]: 0.03 µM

Compound: CC(C)Oc1cc2ccccc2nc1N
EC50 [5]: 100000 nM

Compound: CCOC(=O)C1=Cc2ccc(-c3cccc(C#N)c3)cc2N=C(N)C1
EC50 [6]: 15000 nM | EC50 [7]: 30 nM | Ratio EC50 [8]: 500

Compound: CCC[C@@H](CCO)Nc1nc(N)nc(C)c1Cc1ccc(CN(C)CCO)cc1OC
EC50 [9]: < 5.01 nM | EC50 [10]: 2510 nM

Compound: CCCCOc1nc(N)c2[nH]c(C#N)c(Cc3cnc(CN4CCCC4)s3)c2n1
EC50 [11]: 454 nM | EC50 [12]: 293000 nM

Compound: CCCCOc1nc(N)c2[nH]c(=O)n(Cc3ccccc3)c2n1
minimal effective concentration [13]: 0.001 µM
